# Laboratory results from US7700622B2, “p-38 kinase inhibitors” (Novartis AG, priority 2003, dated 2010).
# pIC50: −log10 of the molar value.
# Molecular target: T1, p38α kinase (Homo sapiens, UniProt Q16539)
# T1 construct: purchased Upstate
# Assay: p38α assay (coupled ADP/NADH oxidation kinase assay)
# Assay type: biochemical
# Set-up: scale not given here
# Settings: 60 min preincubation with p38α, 0.15 mM ATP, 37° C.; read-out: Activity (p-38) IC50
# Method: cDNAs of human p38α and β were cloned by PCR. The α and β cDNAs were subcloned into DEST2 plasmid (Gateway, InVitrogen). His6-p38 fusion protein was expressed in E. coli and purified from bacterial lysates by affinity chromatography using Ni^+2-NTA-agarose. His6-p38 protein was activated by incubating with constitutively active MKK6. Active p38 was separated from MKK6 by affinity chromatography. Constitutively active MKK6 was generated in a manner similar to Raingeaud et al. [Mol. Cell.
# The p38α assay employed is based on measurement of ADP released in the reaction of interest through NADH oxidation obtained by coupling with pyruvate kinase and lactate dehydrogenase reactions. The assays were performed in 384-well UV-plates. The final volume was 25 uL prepared from the addition of 2.5 uL compound dissolved in 10% DMSO, 17.5 uL of assay buffer and 5 uL of ATP. […] Test compounds are preincubated with p38α for 60 min and the reaction started by addition of ATP to 0.15 mM final concentration. Reaction rates were measured at 340 nm using SpectraMax plate-reading spectrophotometer for 10 min at 37° C. Inhibition data were analyzed by non-linear least squares regression using SigmaPlot.
# T1 sequence (Q16539 whole entry): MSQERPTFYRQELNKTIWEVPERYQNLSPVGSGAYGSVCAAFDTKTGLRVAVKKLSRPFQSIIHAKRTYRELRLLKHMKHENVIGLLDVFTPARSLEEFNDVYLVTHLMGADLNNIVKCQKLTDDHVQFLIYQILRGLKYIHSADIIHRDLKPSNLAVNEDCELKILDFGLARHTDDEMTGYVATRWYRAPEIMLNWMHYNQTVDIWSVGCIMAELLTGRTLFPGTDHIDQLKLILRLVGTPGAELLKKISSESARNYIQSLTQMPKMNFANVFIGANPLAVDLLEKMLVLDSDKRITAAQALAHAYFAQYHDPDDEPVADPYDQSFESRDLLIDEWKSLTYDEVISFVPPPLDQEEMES
row,pIC50,Compound
1,> 6.00,"Cc1ccc(C(=O)NC2CC2)cc1-c1ccc(-c2nnco2)cc1 [Example 1, 6-Methyl4′-[1,3,4]oxadiazol-2-yl-biphenyl-3-carboxylic acid cyclopropylamide]"
2,> 6.00,"Cc1ccc(C(=O)NC2CC2)cc1-c1ccc(-c2nnc[nH]2)cc1 [Example 3, 6-Methyl4′-(4H-[1,2,4]triazol-3-yl)-biphenyl-3-carboxylic acid cyclopropylamide]"
3,> 6.00,"Cc1ccc(C(=O)NC2CC2)cc1-c1ccc(-c2nnco2)cn1 [Example 4, N-Cyclopropyl-4-methyl-3-(5-[1,3,4]oxadiazol-2-yl-pyridin-2-yl)-benzamide]"
4,> 6.00,"Cc1nnc(-c2ccc(-c3cc(C(=O)NC4CC4)ccc3C)nc2)o1 [Example 5, N-Cyclopropyl-4-methyl-3-[5-(5-methyl-[1,3,4]oxadiazol-2-yl)-pyridin-2-yl]-benzamide]"
5,> 6.00,"Cc1ccc(C(=O)NC2CC2)cc1-c1ccc2c(=O)n(Cc3ccccc3)cnc2c1 [Example 6, 3-(3-Benzyl-4-oxo-3,4-dihydro-quinazolin-7-yl)-N-cyclopropyl-4-methyl-benzamide]"
6,> 6.00,"Cc1ccc(C(=O)NC2CC2)cc1-c1ccc2c(=O)n(Cc3c(Cl)cccc3Cl)cnc2c1 [Example 7, N-Cyclopropyl-3-[3-(2,6-dichloro-benzyl)-4-oxo-3,4-dihydro-quinazolin-7-yl]-4-methyl-benzamide]"
7,> 6.00,"Cc1ccc(C(=O)NC2CC2)cc1-c1ccc2c(=O)n(Cc3ccc(Cl)c(Cl)c3)cnc2c1 [Example 8, N-Cyclopropyl-3-[3-(3,4-dichloro-benzyl)-4-oxo-3,4-dihydro-quinazolin-7-yl]-4-methyl-benzamide]"
8,> 6.00,"COc1ccc(Cn2cnc3cc(-c4cc(C(=O)NC5CC5)ccc4C)ccc3c2=O)cc1 [Example 9, N-Cyclopropyl-3-[3-(4-methoxy-benzyl)-4-oxo-3,4-dihydro-quinazolin-7-yl]-4-methyl-benzamide]"
9,> 6.00,"Cc1ccc(C(=O)NC2CC2)cc1-c1ccc2c(=O)[nH]cnc2c1 [Example 10, N-Cyclopropyl-4-methyl-3-(4-oxo-3,4-dihydro-quinazolin-7-yl)-benzamide]"
10,> 6.00,"Cc1ccc(C(=O)NC2CC2)cc1-c1ccc(C(=O)c2ccccc2)cc1 [Example 11, 4′-Benzoyl-6-methyl-biphenyl-3-carboxylic acid cyclopropylamide]"
11,> 6.00,"COc1ccc(CNC(=O)c2ccc(-c3cc(C(=O)NC4CC4)ccc3C)nc2)cc1 [Example 12, 6-(5-Cyclopropylcarbamoyl-2-methyl-phenyl)-N-(4-methoxy-benzyl)-nicotinamide]"
12,> 6.00,"COc1ccc(CNC(=O)c2cnc(-c3cc(C(=O)NC4CC4)ccc3C)nc2N)cc1 [Example 13, N-(4-Methoxybenzyl)-2-[(5-cyclopropylaminocarbonyl)-2-methylphenyl]-4-aminopyrimidine-5-carboxyamide]"
13,> 6.00,"Cc1ccc(C(=O)NC2CC2)cc1-c1ccc(C(=O)c2ccccc2)c(N)c1 [Example 14, 3′-Amino-4′-benzoyl-6-methyl-biphenyl-3-carboxylic acid cyclopropylamide]"
14,> 6.00,"Cc1ccc(C(=O)NC2CC2)cc1-c1ccc2c(-c3ccccc3)nc(=O)[nH]c2c1 [Example 15, N-Cyclopropyl-4-methyl-3-(2-oxo-4-phenyl-1,2-dihydro-quinazolin-7-yl)-benzamide]"
15,> 6.00,"Cc1ccc(C(=O)NC2CC2)cc1-c1ccc2c(-c3ccccc3)ncnc2c1 [Example 16, N-Cyclopropyl-4-methyl-3-(4-phenyl-quinazolin-7-yl)-benzamide]"
16,> 6.00,"CC(=O)Nc1cc(-c2cc(C(=O)NC3CC3)ccc2C)ccc1C(=O)c1ccccc1 [Example 17, 3′-Acetylamino4′-benzoyl-6-methyl-biphenyl-3-carboxylic acid cyclopropylamide]"
